# Measurements taken from PubChem BioAssay AID248 (DTP/NCI, 2004).
# Values joined by “and” are separate entries in the source; they are usually repeats but may differ in a detail not shown here. Equal entries are not always repeated. Toxic doses and inconclusive results are not listed.
# System: L1210 leukemia ip in BDF1 mice, survival T/C
# Assay: NCI In Vivo Anticancer Drug Screen. Data for tumor model L1210 Leukemia (intraperitoneal) in B6D2F1 (BDF1) mice
# Details: endpoint: mean survival time, higher = longer survival
# Summary of the method: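 Transplanted-tumor mice were given test agent; controls received vehicle only. Survival readings from the two groups were divided (treated over control).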
# [1] = dose: 100.0 mg/kg/injection, schedule: Q01DX001 (ip), vehicle: carboxymethylcellulose (CMC)
# [2] = dose: 200.0 mg/kg/injection, schedule: Q01DX001 (ip), vehicle: carboxymethylcellulose (CMC)
# [3] = dose: 400.0 mg/kg/injection, schedule: Q01DX001 (ip), vehicle: carboxymethylcellulose (CMC)
# [4] = dose: 100.0 mg/kg/injection, schedule: Q01DX009 (ip), vehicle: Klucel (hydroxypropylcellulose) (HPC)
# [5] = dose: 200.0 mg/kg/injection, schedule: Q01DX009 (ip), vehicle: Klucel (hydroxypropylcellulose) (HPC)
# [6] = dose: 400.0 mg/kg/injection, schedule: Q01DX009 (ip), vehicle: Klucel (hydroxypropylcellulose) (HPC)
# [7] = dose: 100.0 mg/kg/injection, schedule: Q01DX001 (ip), vehicle: saline
# [8] = dose: 200.0 mg/kg/injection, schedule: Q01DX001 (ip), vehicle: saline
# [9] = dose: 400.0 mg/kg/injection, schedule: Q01DX001 (ip), vehicle: saline
# [10] = dose: 100.0 mg/kg/injection, schedule: Q01DX001 (ip), vehicle: saline with Tween-80
# [11] = dose: 50.0 mg/kg/injection, schedule: Q01DX009 (ip), vehicle: saline
# [12] = dose: 100.0 mg/kg/injection, schedule: Q04DX003 (ip), vehicle: Klucel (hydroxypropylcellulose) (HPC)
# [13] = dose: 200.0 mg/kg/injection, schedule: Q04DX003 (ip), vehicle: Klucel (hydroxypropylcellulose) (HPC)
# [14] = dose: 100.0 mg/kg/injection, schedule: Q04DX002 (ip), vehicle: Klucel (hydroxypropylcellulose) (HPC)
# [15] = dose: 200.0 mg/kg/injection, schedule: Q04DX002 (ip), vehicle: Klucel (hydroxypropylcellulose) (HPC)
# [16] = dose: 400.0 mg/kg/injection, schedule: Q04DX002 (ip), vehicle: Klucel (hydroxypropylcellulose) (HPC)
# [17] = dose: 400.0 mg/kg/injection, schedule: Q04DX003 (ip), vehicle: Klucel (hydroxypropylcellulose) (HPC)
structure (smiles),measurement,setting,value
CC(=O)NCCCCCC(=O)Nc1ccc(Cl)c(Cl)c1,T/C,[1],94 % of control
same,T/C,[2],92 % of control
same,T/C,[3],92 % of control
CN(C)c1ccc(/C=N/NC(=O)c2ccccc2)cc1,T/C,"dose: 100.0 mg/kg/injection, schedule: Q04DX003 (ip), vehicle: other",94 % of control
same,T/C,"dose: 200.0 mg/kg/injection, schedule: Q04DX003 (ip), vehicle: other",97 % of control
same,T/C,"dose: 400.0 mg/kg/injection, schedule: Q04DX003 (ip), vehicle: other",98 % of control
CN(C(=O)Nc1ccc(Cl)cc1[N+](=O)[O-])C1CCCCC1,T/C,[4],92 % of control
same,T/C,[5],94 % of control
same,T/C,[6],97 % of control
O=[N+]([O-])c1ccc(S(=O)(=O)F)c(Cl)c1,T/C,[7],98 % of control
same,T/C,[8],90 % of control
same,T/C,[9],96 % of control
C/C=C/CS(=O)(=O)Cc1ccccc1,T/C,[10],103 % of control
same,T/C,"dose: 200.0 mg/kg/injection, schedule: Q01DX001 (ip), vehicle: saline with Tween-80",95 % of control
same,T/C,"dose: 400.0 mg/kg/injection, schedule: Q01DX001 (ip), vehicle: saline with Tween-80",103 % of control
C=CC[n+]1cccc2ccccc21,T/C,"dose: 12.5 mg/kg/injection, schedule: Q01DX009 (ip), vehicle: saline",97 % of control
same,T/C,"dose: 12.5 mg/kg/injection, schedule: Q04DX003 (ip), vehicle: saline",98 % of control
same,T/C,"dose: 25.0 mg/kg/injection, schedule: Q01DX009 (ip), vehicle: saline",101 % of control
same,T/C,"dose: 25.0 mg/kg/injection, schedule: Q04DX003 (ip), vehicle: saline",104 % of control
same,T/C,[11],99 % of control
same,T/C,"dose: 50.0 mg/kg/injection, schedule: Q04DX003 (ip), vehicle: saline",98 % of control
O=C1OC(=O)c2ccc(S)c3cccc1c23,T/C,"dose: 50.0 mg/kg/injection, schedule: Q01DX009 (ip), vehicle: saline with Tween-80",96 % of control
same,T/C,"dose: 100.0 mg/kg/injection, schedule: Q01DX009 (ip), vehicle: saline with Tween-80",102 % of control
same,T/C,"dose: 200.0 mg/kg/injection, schedule: Q01DX009 (ip), vehicle: saline with Tween-80",94 % of control and 101 % of control
CC(=O)NN(c1ccc([N+](=O)[O-])cc1)c1ccc([N+](=O)[O-])cc1,T/C,"dose: 50.0 mg/kg/injection, schedule: Q01DX009 (ip), vehicle: Klucel (hydroxypropylcellulose) (HPC)",97 % of control
same,T/C,[4],90 % of control
same,T/C,[12],93 % of control
same,T/C,[13],95 % of control
O=C1OC(c2cccc([N+](=O)[O-])c2)=N/C1=C\c1ccc(O)cc1,T/C,"dose: 100.0 mg/kg/injection, schedule: Q04DX002 (ip), vehicle: saline",101 % of control
same,T/C,"dose: 200.0 mg/kg/injection, schedule: Q04DX002 (ip), vehicle: saline",101 % of control
same,T/C,"dose: 400.0 mg/kg/injection, schedule: Q04DX002 (ip), vehicle: saline",101 % of control
COC(=O)c1cc([N+](=O)[O-])c(C)s1,T/C,[7],100 % of control
same,T/C,[8],100 % of control
same,T/C,[9],96 % of control
CN1CCCCCCCC(=O)C(OC(=O)c2ccc([N+](=O)[O-])cc2)CCCCCCC1 (configuration not stated),T/C,"dose: 50.0 mg/kg/injection, schedule: Q01DX001 (ip), vehicle: carboxymethylcellulose (CMC)",95 % of control
same,T/C,[1],97 % of control
same,T/C,[2],95 % of control
same,T/C,[3],95 % of control
NC(C(=O)O)C(C(=O)O)c1ccccc1 (configuration not stated),T/C,[14],101 % of control
same,T/C,[15],101 % of control
same,T/C,[16],93 % of control
CCCCCCCCCCCCCCCCc1ccc(CCCC(=O)O)cc1,T/C,[12],91 % of control
same,T/C,[13],92 % of control
same,T/C,[17],91 % of control
COc1c(Cl)cc2c(c1OC)N(C)C1N3C(=O)C4(C)SSC3(CC21O)C(=O)N4C (configuration not stated),T/C,"dose: 0.12 mg/kg/injection, schedule: Q01DX009 (ip), vehicle: Klucel (hydroxypropylcellulose) (HPC)",100 % of control
same,T/C,"dose: 0.25 mg/kg/injection, schedule: Q01DX009 (ip), vehicle: Klucel (hydroxypropylcellulose) (HPC)",101 % of control
same,T/C,"dose: 0.5 mg/kg/injection, schedule: Q01DX009 (ip), vehicle: Klucel (hydroxypropylcellulose) (HPC)",108 % of control
same,T/C,"dose: 1.0 mg/kg/injection, schedule: Q01DX009 (ip), vehicle: Klucel (hydroxypropylcellulose) (HPC)",111 % of control
CC1NCCC1CO (configuration not stated),T/C,[11],104 % of control
same,T/C,"dose: 100.0 mg/kg/injection, schedule: Q01DX009 (ip), vehicle: saline",97 % of control
same,T/C,"dose: 100.0 mg/kg/injection, schedule: Q04DX003 (ip), vehicle: saline",96 % of control
same,T/C,"dose: 200.0 mg/kg/injection, schedule: Q01DX009 (ip), vehicle: saline",94 % of control
same,T/C,"dose: 200.0 mg/kg/injection, schedule: Q04DX003 (ip), vehicle: saline",104 % of control
Cc1ccc(Nc2ccc([N+](=O)[O-])cc2[N+](=O)[O-])c(C)c1,T/C,[4],94 % of control
same,T/C,[12],96 % of control
same,T/C,[5],101 % of control
same,T/C,[13],91 % of control
same,T/C,[6],103 % of control
same,T/C,[17],98 % of control
COP(=S)(OC)N1CC1,T/C,"dose: 11.1 mg/kg/injection, schedule: Q01DX Z (ip), vehicle: saline",108 % of control
same,T/C,"dose: 16.6 mg/kg/injection, schedule: Q01DX Z (ip), vehicle: saline",100 % of control
same,T/C,"dose: 25.0 mg/kg/injection, schedule: Q01DX Z (ip), vehicle: saline",100 % of control
N#CCCNC(=O)N(CCC#N)N=O,T/C,"dose: 3.12 mg/kg/injection, schedule: Q01DX Z (ip), vehicle: carboxymethylcellulose (CMC)",100 % of control
same,T/C,"dose: 6.25 mg/kg/injection, schedule: Q01DX Z (ip), vehicle: carboxymethylcellulose (CMC)",102 % of control
same,T/C,"dose: 12.5 mg/kg/injection, schedule: Q01DX Z (ip), vehicle: carboxymethylcellulose (CMC)",103 % of control
same,T/C,"dose: 25.0 mg/kg/injection, schedule: Q01DX Z (ip), vehicle: carboxymethylcellulose (CMC)",118 % of control
same,T/C,"dose: 75.0 mg/kg/injection, schedule: Q01DX Z (ip), vehicle: carboxymethylcellulose (CMC)",153 % of control
same,T/C,"dose: 100.0 mg/kg/injection, schedule: Q01DX Z (ip), vehicle: carboxymethylcellulose (CMC)",118 % of control
same,T/C,"dose: 150.0 mg/kg/injection, schedule: Q01DX Z (ip), vehicle: carboxymethylcellulose (CMC)",155 % of control
same,T/C,"dose: 200.0 mg/kg/injection, schedule: Q01DX Z (ip), vehicle: carboxymethylcellulose (CMC)",116 % of control
CCC1CN1P1(=O)OCC(C)(N)CO1 (configuration not stated),T/C,[1],104 % of control
same,T/C,[2],101 % of control
same,T/C,[3],101 % of control
CCCCC(=O)N/N=C\c1ccc(C(=O)O)cc1,T/C,[1],96 % of control
same,T/C,[2],100 % of control
same,T/C,[3],110 % of control
CCc1ccc(-n2cnc3c(=O)[nH]c(N)nc32)cc1,T/C,"dose: 25.0 mg/kg/injection, schedule: Q01DX001 (ip), vehicle: saline with Tween-80",86 % of control
same,T/C,"dose: 50.0 mg/kg/injection, schedule: Q01DX001 (ip), vehicle: saline with Tween-80",88 % of control
same,T/C,[10],91 % of control
NC1=CC(=O)C(=O)c2cccnc21,T/C,"dose: 75.0 mg/kg/injection, schedule: Q01DX001 (ip), vehicle: other",92 % of control
O=C(c1ccccc1)c1cc(CN(C2CCCCC2)C2CCCCC2)c(O)cc1O,T/C,[7],90 % of control
same,T/C,[8],91 % of control
same,T/C,[9],96 % of control
COc1ccccc1/C=C(\S)C(=O)O,T/C,[7],103 % of control
same,T/C,[8],97 % of control
same,T/C,[9],97 % of control
CCCCCCCCC(SC#N)C(CCCCCCCC(=O)O)SC#N (configuration not stated),T/C,[14],100 % of control
same,T/C,[15],95 % of control
same,T/C,[16],106 % of control
O=C(Nc1ccc(NS(=O)(=O)c2ccccc2)cc1Cl)c1ccccc1,T/C,"dose: 50.0 mg/kg/injection, schedule: Q01DX001 (ip), vehicle: Klucel (hydroxypropylcellulose) (HPC)",104 % of control
same,T/C,"dose: 100.0 mg/kg/injection, schedule: Q01DX001 (ip), vehicle: Klucel (hydroxypropylcellulose) (HPC)",108 % of control
same,T/C,"dose: 200.0 mg/kg/injection, schedule: Q01DX001 (ip), vehicle: Klucel (hydroxypropylcellulose) (HPC)",90 % of control
